Results from PubChem BioAssay AID248 (DTP/NCI, 2004).
Inconclusive results and toxic doses are left out. Rule as the data show it: active = T/C of 150% or more; inactive = T/C below 125%.

System: L1210 leukemia ip in BDF1 mice, survival T/C
Assay: NCI In Vivo Anticancer Drug Screen. Data for tumor model L1210 Leukemia (intraperitoneal) in B6D2F1 (BDF1) mice
Conditions: endpoint: mean survival time, higher = longer survival
Summary of the method: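 Survival endpoint. Drug-treated group vs vehicle group, expressed as T divided by C. Tumor passaged by transplantation.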

[1] = dose: 100.0 mg/kg/injection, schedule: Q04DX003 (ip), vehicle: Klucel (hydroxypropylcellulose) (HPC)
[2] = dose: 400.0 mg/kg/injection, schedule: Q04DX003 (ip), vehicle: Klucel (hydroxypropylcellulose) (HPC)
[3] = dose: 25.0 mg/kg/injection, schedule: Q04DX003 (ip), vehicle: saline
[4] = dose: 50.0 mg/kg/injection, schedule: Q04DX003 (ip), vehicle: saline
[5] = dose: 100.0 mg/kg/injection, schedule: Q04DX003 (ip), vehicle: saline with Tween-80
[6] = dose: 100.0 mg/kg/injection, schedule: Q04DX003 (ip), vehicle: saline
[7] = dose: 200.0 mg/kg/injection, schedule: Q04DX003 (ip), vehicle: saline with Tween-80
[8] = dose: 50.0 mg/kg/injection, schedule: Q01DX009 (ip), vehicle: Klucel (hydroxypropylcellulose) (HPC)
[9] = dose: 100.0 mg/kg/injection, schedule: Q01DX009 (ip), vehicle: Klucel (hydroxypropylcellulose) (HPC)
[10] = dose: 200.0 mg/kg/injection, schedule: Q01DX009 (ip), vehicle: Klucel (hydroxypropylcellulose) (HPC)
[11] = dose: 200.0 mg/kg/injection, schedule: Q04DX003 (ip), vehicle: Klucel (hydroxypropylcellulose) (HPC)
[12] = dose: 150.0 mg/kg/injection, schedule: Q01DX009 (ip), vehicle: Klucel (hydroxypropylcellulose) (HPC)
[13] = dose: 100.0 mg/kg/injection, schedule: Q01DX001 (ip), vehicle: saline
[14] = dose: 200.0 mg/kg/injection, schedule: Q01DX001 (ip), vehicle: saline
[15] = dose: 400.0 mg/kg/injection, schedule: Q01DX001 (ip), vehicle: saline
[16] = dose: 100.0 mg/kg/injection, schedule: Q01DX009 (ip), vehicle: saline
[17] = dose: 200.0 mg/kg/injection, schedule: Q01DX009 (ip), vehicle: saline
[18] = dose: 100.0 mg/kg/injection, schedule: Q01DX001 (ip), vehicle: Klucel (hydroxypropylcellulose) (HPC)
[19] = dose: 200.0 mg/kg/injection, schedule: Q01DX001 (ip), vehicle: Klucel (hydroxypropylcellulose) (HPC)
[20] = dose: 400.0 mg/kg/injection, schedule: Q01DX001 (ip), vehicle: Klucel (hydroxypropylcellulose) (HPC)
[21] = dose: 100.0 mg/kg/injection, schedule: Q01DX001 (ip), vehicle: carboxymethylcellulose (CMC)
[22] = dose: 200.0 mg/kg/injection, schedule: Q01DX001 (ip), vehicle: carboxymethylcellulose (CMC)
[23] = dose: 400.0 mg/kg/injection, schedule: Q01DX001 (ip), vehicle: carboxymethylcellulose (CMC)
[24] = dose: 50.0 mg/kg/injection, schedule: Q01DX009 (ip), vehicle: saline
[25] = dose: 400.0 mg/kg/injection, schedule: Q01DX009 (ip), vehicle: Klucel (hydroxypropylcellulose) (HPC)

Measured: T/C

Clc1cc(Cc2ccc(N=C/C=C/c3ccccc3)c(Cl)c2)ccc1N=C/C=C\c1ccccc1
inactive: dose: 100.0 mg/kg/injection, schedule: Q04DX002 (ip), vehicle: Klucel (hydroxypropylcellulose) (HPC) 100 % of control | dose: 200.0 mg/kg/injection, schedule: Q04DX002 (ip), vehicle: Klucel (hydroxypropylcellulose) (HPC) 93 % of control | dose: 400.0 mg/kg/injection, schedule: Q04DX002 (ip), vehicle: Klucel (hydroxypropylcellulose) (HPC) 86 % of control

NC1(C(=O)O)CCc2ccccc2C1 (stereo unspecified)
inactive: [1] 91 % of control | [2] 99 % of control

CC(C)N(C(=O)/C=C/C(=O)N(C(C)C)C(C)C)C(C)C
inactive: [3] 92 % of control | [4] 95 % of control | [5] 100 % of control | [6] 98 % of control | [7] 96 % of control

CC1CCC(C(C)C)C(N(C)Cc2cc(Cl)cc(Cl)c2O)C1 (stereo unspecified)
inactive: [8] 107 % of control | [9] 105 % of control | [1] 104 % of control | [10] 107 % of control | [11] 98 % of control | [2] 101 % of control

Cc1cccc(C)c1NC(=O)NC/C(Br)=C/Br
inactive: dose: 75.0 mg/kg/injection, schedule: Q01DX009 (ip), vehicle: Klucel (hydroxypropylcellulose) (HPC) 100 % of control | [12] 100 % of control | dose: 300.0 mg/kg/injection, schedule: Q01DX009 (ip), vehicle: Klucel (hydroxypropylcellulose) (HPC) 104 % of control

CNS(=O)(=O)c1ccccc1C(=O)c1ccccc1
inactive: [13] 100 % of control | [14] 97 % of control | [15] 103 % of control

CCCCCCCCCCCCCCCCCC(=O)NCCNC(=O)CCCCCCCCCCCCCCCCC
inactive: dose: 12.5 mg/kg/injection, schedule: Q04DX003 (ip), vehicle: Klucel (hydroxypropylcellulose) (HPC) 103 % of control | dose: 25.0 mg/kg/injection, schedule: Q01DX009 (ip), vehicle: Klucel (hydroxypropylcellulose) (HPC) 108 % of control | dose: 25.0 mg/kg/injection, schedule: Q04DX003 (ip), vehicle: Klucel (hydroxypropylcellulose) (HPC) 107 % of control | [8] 104 % of control | dose: 50.0 mg/kg/injection, schedule: Q04DX003 (ip), vehicle: Klucel (hydroxypropylcellulose) (HPC) 104 % of control | [9] 104 % of control | [1] 90 % of control | [12] 88 % of control | [11] 96 % of control

O=C(O)C(O)c1ccc(Cl)cc1 (stereo unspecified)
inactive: [16] 96 % of control | [17] 91 % of control

CCCCOC(=O)c1ccc(NC(=O)Nc2ccc([N+](=O)[O-])cc2OC)cc1
inactive: dose: 100.0 mg/kg/injection, schedule: Q01DX009 (ip), vehicle: other 98 % of control | dose: 200.0 mg/kg/injection, schedule: Q01DX009 (ip), vehicle: other 104 % of control | dose: 400.0 mg/kg/injection, schedule: Q01DX009 (ip), vehicle: other 87 % of control

O=C(CNC(=O)C1CCCN1Sc1ccc([N+](=O)[O-])cc1[N+](=O)[O-])NCC(=O)OCc1ccccc1 (stereo unspecified)
inactive: [18] 98 % of control | [19] 103 % of control | [20] 98 % of control

O=C1c2ccccc2-c2c(Br)cccc21
inactive: dose: 50.0 mg/kg/injection, schedule: Q04DX002 (ip), vehicle: saline with Tween-80 91 % of control | dose: 100.0 mg/kg/injection, schedule: Q04DX002 (ip), vehicle: saline with Tween-80 91 % of control | dose: 200.0 mg/kg/injection, schedule: Q04DX002 (ip), vehicle: saline with Tween-80 102 % of control

O=C(Nc1ncn[nH]1)C(F)(F)F
inactive: [13] 103 % of control | [14] 103 % of control | [15] 92 % of control

CC(=O)OCc1ccc(O)c2ncccc12
inactive: dose: 75.0 mg/kg/injection, schedule: Q01DX001 (ip), vehicle: carboxymethylcellulose (CMC) 96 % of control | dose: 150.0 mg/kg/injection, schedule: Q01DX001 (ip), vehicle: carboxymethylcellulose (CMC) 100 % of control

CCCCNC(=O)CS(=O)(=O)c1ccc(Cl)cc1
inactive: [5] 94 % of control | [7] 100 % of control | dose: 400.0 mg/kg/injection, schedule: Q04DX003 (ip), vehicle: saline with Tween-80 94 % of control

CCOC(=O)NC(=O)Nc1ncn[nH]1
inactive: [6] 97 % of control | dose: 200.0 mg/kg/injection, schedule: Q04DX003 (ip), vehicle: saline 94 % of control | dose: 400.0 mg/kg/injection, schedule: Q04DX003 (ip), vehicle: saline 94 % of control

O=[N+]([O-])c1ccc(P(=O)(O)O)cc1
inactive: dose: 50.0 mg/kg/injection, schedule: Q01DX001 (ip), vehicle: saline 103 % of control | [13] 101 % of control | [14] 107 % of control | [15] 115 % of control

CCc1ccc(N=Nc2ccccc2)cc1
inactive: [21] 105 % of control | [22] 96 % of control | [23] 105 % of control

CC(C)(C)C1=C[P+](c2ccccc2)(c2ccccc2)C(C(C)(C)C)=C[P+]1(c1ccccc1)c1ccccc1
inactive: dose: 12.5 mg/kg/injection, schedule: Q01DX009 (ip), vehicle: saline 94 % of control | dose: 12.5 mg/kg/injection, schedule: Q04DX003 (ip), vehicle: saline 96 % of control | dose: 25.0 mg/kg/injection, schedule: Q01DX009 (ip), vehicle: saline 104 % of control | [3] 122 % of control | [24] 100 % of control | [4] 108 % of control

CCOC(=O)c1ccc(NC(=O)Nc2cccc(C(C)=O)c2)cc1
inactive: [9] 95 % of control | [10] 93 % of control | [25] 101 % of control

Nc1nc(N)nc(SCCO)n1
inactive: [9] 99 % of control | [10] 110 % of control | [25] 93 % of control

O=C(O)c1oc(Br)cc1Br
inactive: dose: 12.5 mg/kg/injection, schedule: Q04DX003 (ip), vehicle: other 96 % of control | dose: 25.0 mg/kg/injection, schedule: Q04DX003 (ip), vehicle: other 102 % of control | dose: 50.0 mg/kg/injection, schedule: Q04DX003 (ip), vehicle: other 101 % of control

CC1=NN(c2ccc(S(=O)(=O)O)cc2)C(=O)C1
inactive: [1] 89 % of control | [11] 98 % of control | [2] 91 % of control

C=C(C)C1CCC(C)=CC1c1c(OC(=O)c2cc([N+](=O)[O-])cc([N+](=O)[O-])c2)cc(CCCCC)cc1OC(=O)c1cc([N+](=O)[O-])cc([N+](=O)[O-])c1 (stereo unspecified)
inactive: [18] 92 % of control | [19] 91 % of control | [20] 92 % of control

O=C(O)c1ccc(N/N=C\c2cc(=O)[nH]c(=O)[nH]2)cc1
inactive: dose: 5.0 mg/kg/injection, schedule: Q01DX001 (ip), vehicle: saline 97 % of control | dose: 10.0 mg/kg/injection, schedule: Q01DX001 (ip), vehicle: saline 97 % of control | dose: 20.0 mg/kg/injection, schedule: Q01DX001 (ip), vehicle: saline 98 % of control | dose: 40.0 mg/kg/injection, schedule: Q01DX001 (ip), vehicle: saline 97 % of control

CCCCCCCCCCCSCCCCCCCCSCCCCCCCCCCC
inactive: [18] 87 % of control | [19] 92 % of control | [20] 91 % of control

CNC(=O)Oc1ccc([N+](C)(C)C)cc1
inactive: dose: 9.5 mg/kg/injection, schedule: Q01DX001 (ip), vehicle: saline 109 % of control | dose: 19.0 mg/kg/injection, schedule: Q01DX001 (ip), vehicle: saline 100 % of control

CCOC(=O)C(=O)CC1=NC2CCCCC2N(C)C1=O (stereo unspecified)
inactive: [24] 93 % of control | [16] 90 % of control | [17] 90 % of control

CC(C)(C)C1=CC(C)([N+](=O)[O-])C=C(C(C)(C)C)C1=O
inactive: [21] 88 % of control | [22] 89 % of control | [23] 88 % of control
